Experimental data published in patent US10837058B2, “Markers of papillary and reticular fibroblasts and uses thereof” (CHANEL PARFUMS BEAUTE, priority 2011, dated 2020).

Tests used:
Format in all cases: cell-based, human
[1] = system: reticular or papillary fibroblasts; test: Compound screening on reticular or papillary fibroblasts, qPCR of 3 papillary and 3 reticular markers; conditions: high=0.01% v/v, low=0.0001% v/v, 24 hrs; CCRL1, NTN1, PDPN, MGP, PPP1R14A, TGM2; FIG. 2
Description: The fibroblasts were isolated and cultured as described above (example 1).
12000 reticular or papillary fibroblasts were seeded in 12 well culture plates (Costar). The fibroblasts were cultured for 5 days until 90% of the surface area was covered. Two different concentrations (low/high) of compounds were applied for 24 hrs. Pictures were taken before and after application. No differences in morphology and were observed (data not shown). RNA was isolated as described in example 1.
qPCR analysis was performed using 3 papillary (CCRL1, NTN1 and PDPN) and 3 reticular (MGP, PPP1R14A and TGM2) markers, according to example 1. The expression was normalized using two reference genes (SND1 and EI24). The effect of verbascoside was determined by comparing the expression of the genes to the expression of vehicle treated fibroblasts.

papillary fibroblasts [2] = test: TGF-β1 treatment of monolayer papillary fibroblasts, marker expression by qPCR; conditions: TGF-β1 2 or 10 ng/mL, 2 or 4 days
Description: cDNA was generated of 1 μg RNA using the iScript cDNA synthesis kit (BioRad, Veenendaal, The Netherlands) according to manufacturer's instructions. PCR reactions were based on the SYBR Green method (BioRad) and consisted of 2× Sybr Green Mastermix, 1 ng cDNA template and 500 nM of forward and reverse primers. The PCRs were run on the MyIQ system (BioRad). The PCR cycles were: 3,5 minutes at 95 C to activate the polymerase, 35 cycles of 20 sec 95 C and 40 sec 60 C, followed by the generation of a melt curve. Primers were checked before on dilution series of normal fibroblasts cDNA. References genes were analyzed with the GeNorm method (20). Expression analysis was performed with the BioRad Software (iQ5) and was based on the delta delta Ct method with the reference genes that were most stably expressed in the GeNorm analysis.
(§1) Monolayer cultures of papillary fibroblasts were treated with TGF-β1, 2 or 10 ng/mL, for 2 or 4 days. Then the expression of the reticular and papillary markers was measured by qPCR and by IHC staining on the cultures.

papillary fibroblasts [3] = test: TGF-β1 treatment of monolayer papillary fibroblasts, IHC staining and morphology; conditions: TGF-β1 2 or 10 ng/mL, 2 or 4 days
Description: For IHC on monolayer cell cultures, fibroblasts were grown on glass slides until nearly confluent, washed in PBS and fixed with 4% formaldehyde. Staining was visualized by a secondary antibody with a fluorescent dye (Cy3). DAPI was used as counterstain.
as §1

Molecule | effect on reticular/papillary marker gene signature (qPCR, vs vehicle treated fibroblasts) [1] | differentiation of papillary fibroblasts as measured by qPCR (papillary fibroblasts [2]; monolayer cell cultures) | expression of papillary markers (qPCR) (papillary fibroblasts [2]; data not shown) | expression of reticular markers (qPCR) (papillary fibroblasts [2]; data not shown) | myofibroblast differentiation: a-SMA expression (papillary fibroblasts [3]) | myofibroblast differentiation: morphological changes (papillary fibroblasts [3]) | papillary marker PDPN by IHC staining (papillary fibroblasts [3]) | reticular marker TGM2 by IHC staining (papillary fibroblasts [3])
C[C@@H]1O[C@@H](O[C@@H]2[C@@H](O)[C@H](OCCc3ccc(O)c(O)c3)O[C@H](CO)[C@H]2OC(=O)/C=C/c2ccc(O)c(O)c2)[C@H](O)[C@H](O)[C@H]1O [Verbascoside] | able to alter the reticular signature into a papillary signature | – | – | – | – | – | – | –
TGF-β1: TGF-β1, can induce differentiation of fibroblasts to myofibroblasts | – | caused differentiation to reticular fibroblasts | decreased | increased | increased a-SMA expression | increase in cell size | loss of papillary marker PDPN | gain of reticular marker TGM2
